{"source": "patent EP1027880A2", "about": "“Use of quaternary ammonium compounds as antiperspirants” (Beiersdorf Aktiengesellschaft, priority 1999, dated 2000)", "test_system": "Schweißsekretion", "experiment": "Imprint method: sweat reduction on the inner forearm after topical application for several days, sauna sweating, silicone imprint with image analysis", "format": "in vivo, menschlichen Probanden", "description": "Der Nachweis der Wirksamkeit wurde an menschlichen Probanden mit Hilfe der sogenannten \"Imprintmethode\" geführt. Bei dieser Methode wird das zu untersuchende Material am Unterarm innen mehrere Tage hintereinander (topisch) angewendet, sodann begeben sich die Probanden in die Sauna zum Schwitzen. An der Untersuchungsstelle wird eine Silikonmasse aufgetragen, die während der Schwitzphase aushärtet. An den Stellen, an denen Schweisströpfchen austreten, bilden sich Abdrücke in der Silikonmasse, welche bildanalytisch ausgewertet werden können. Nach diesem Verfahren wurden zunächst die Wirkstoffe in wäßriger Lösung untersucht und sodann entsprechende kosmetische Zubereitungen.\nEs wurden wässrige Lösungen aus Mecetroniumethylsulfat (MES) hergestellt und an 15 Probanden die Schweissreduktion mit Hilfe der Imprint-Methode am inneren Unterarm geprüft. Zum Vergleich wurde eine 10 %ige Aluminiumchlorhydrat-Lösung verwendet", "note": "Where “and” joins values, the source holds several entries; their conditions need not be identical. Identical values can stand only once.", "data": [{"compound": "CCCCCCCCCCCCCCCC[N+](C)(C)CC", "note": "[MES, N-Hexadecyl-N-ethyl-N,N-dimethylammoniumethylsulfat]", "values": [{"measurement": "Reduktion der Schweißsekretion", "setting": "in vivo", "value": "93% and 95%"}]}, {"compound": "Aluminiumchlorhydrat", "values": [{"measurement": "Reduktion der Schweißsekretion", "setting": "10 %ige comparison solution, 15 Probanden, inner forearm", "value": 93, "unit": "%"}]}]}
